Assay results as given in US7731985B2, “4-aminopyrimidines and their use for the antimicrobial treatment of surfaces” (Ciba Specialty Chemicals Corporation, priority 2002, dated 2010).

Tests used:
Test in all cases: MIC in microtitre plates (Example 10)
Assay type in all cases: cell-based
Set-up in all cases: unit not given here
Conditions in all cases: microtitre plate, 48 hours at 37° C., ≦20% growth
[1] = tested on: Pseudomonas aeruginosa CIP A-22 (=PA)
Protocol: (§1) Determination of the Minimum Inhibitory Concentration (MIC Value) in Microtitre Plates Casein/soymeal peptone broth for preparation of pre-cultures of test bacteria and yeast Bacteria: • Pseudomonas aeruginosa CIP A-22 (=PA) • Escherichia coli NCTC 8196 (=EC) • Staphylococcus aureus ATCC 9144 (=SA) • Candida albicans ATCC 10231 (=CA) The test substances are pre-dissolved in dimethyl sulfoxide (DMSO) and tested in a dilution series of 1:2. Bacteria and yeast are cultured overnight in CASO broth. All the test organism suspensions are adjusted to an organism count of 1-5×10^6 CFU/ml using […] sodium chloride solution. The test substances are pre-pipetted into microtitre plates in amounts of 8 μl per well. The pre-adjusted organism suspensions are diluted 1:100 in CASO broth and are added in amounts of 192 μl per well to the test substances. The test batches are incubated for 48 hours at 37° C. The incubation, the growth is determined on the basis of the turbidity of the test batches (optical density) at 620 nm in a microplate reader. The minimum inhibitory concentration (MIC value) is the concentration of substance at which (compared to the growth of the control) an appreciable inhibition of growth (≦20% growth) of the test organisms is observed. Three microtitre plates are used for each test organism and substance concentration. All the substances are tested in duplicate.

[2] = tested on: Escherichia coli NCTC 8196 (=EC)
Protocol: as §1

[3] = tested on: Candida albicans ATCC 10231 (=CA)
Protocol: as §1

[4] = tested on: Staphylococcus aureus ATCC 9144 (=SA)
Protocol: as §1

## NCCN1CCN(c2nc(-c3ccccc3)nc(-c3cccc4ccccc34)c2-c2ccccc2)CC1 [compound 3]
[1]
  MIC PA: >120
[2]
  MIC EC: 15
[3]
  MIC CA: 7.5
[4]
  MIC SA: 7.5

## NCCCCCCCCNc1nc(-c2ccccc2)nc(-c2cccc3ccccc23)c1-c1ccccc1 [compound 4]
[1]
  MIC PA: >120
[2]
  MIC EC: 30
[3]
  MIC CA: 15
[4]
  MIC SA: 7.5

## NCCCCCCCCCCNc1nc(-c2ccccc2)nc(-c2cccc3ccccc23)c1-c1ccccc1 [compound 5]
[1]
  MIC PA: >120
[2]
  MIC EC: >120
[3]
  MIC CA: >120
[4]
  MIC SA: 7.5

## NCCCOCCCCOCCCNc1nc(-c2ccccc2)nc(-c2cccc3ccccc23)c1-c1ccccc1 [compound 6]
[1]
  MIC PA: >120
[2]
  MIC EC: 60
[3]
  MIC CA: >120
[4]
  MIC SA: 7.5

## Fc1ccc(-c2nc(-c3ccccc3)nc(N3CCCNCC3)c2-c2ccccc2)cc1 [compound 7]
[1]
  MIC PA: >120
[2]
  MIC EC: 15
[3]
  MIC CA: 30
[4]
  MIC SA: 15

## NCCCCCCCCCCCCNc1nc(-c2ccccc2)nc(-c2ccc(F)cc2)c1-c1ccccc1 [compound 8]
[1]
  MIC PA: >120
[2]
  MIC EC: 30
[3]
  MIC CA: 120
[4]
  MIC SA: 30

## NCCCOCCCCOCCCNc1nc(-c2ccccc2)nc(-c2ccc(F)cc2)c1-c1ccccc1 [compound 9]
[1]
  MIC PA: >120
[2]
  MIC EC: 15
[3]
  MIC CA: 30
[4]
  MIC SA: 15

## CNCCN(C)c1nc(-c2ccccc2)nc(-c2ccc(C)cc2)c1-c1ccccc1 [compound 10]
[1]
  MIC PA: >120
[2]
  MIC EC: 30
[3]
  MIC CA: 30
[4]
  MIC SA: 15

## Cc1ccc(-c2nc(-c3ccccc3)nc(NCCCCCCN)c2-c2ccccc2)cc1 [compound 11]
[1]
  MIC PA: >120
[2]
  MIC EC: 15
[3]
  MIC CA: 7.5
[4]
  MIC SA: 7.5

## Cc1ccc(-c2nc(-c3ccccc3)nc(NCCCN(C)CCCN)c2-c2ccccc2)cc1 [compound 12]
[1]
  MIC PA: 7.5
[2]
  MIC EC: 3.75
[3]
  MIC CA: 7.5
[4]
  MIC SA: 7.5

## Cc1ccc(-c2nc(-c3ccccc3)nc(NCCOCCOCCN)c2-c2ccccc2)cc1 [compound 13]
[1]
  MIC PA: >120
[2]
  MIC EC: 15
[3]
  MIC CA: 30
[4]
  MIC SA: 15

## Cc1ccc(-c2nc(-c3ccccc3)nc(NCCCN3CCN(CCCN)CC3)c2-c2ccccc2)cc1 [compound 14]
[1]
  MIC PA: 30
[2]
  MIC EC: 3.75
[3]
  MIC CA: 15
[4]
  MIC SA: 15

## Cc1ccc(-c2nc(-c3ccccc3)nc(N3CCC(CCCC4CCNCC4)CC3)c2-c2ccccc2)cc1 [compound 15]
[1]
  MIC PA: >120
[2]
  MIC EC: >120
[3]
  MIC CA: >120
[4]
  MIC SA: 15

## FC(F)(F)c1cccc(-c2nc(-c3ccccc3)nc(N3CCNCC3)c2-c2ccccc2)c1 [compound 16]
[1]
  MIC PA: >120
[2]
  MIC EC: 15
[3]
  MIC CA: 15
[4]
  MIC SA: 7.5

## CNCCN(C)c1nc(-c2ccccc2)nc(-c2cccc(C(F)(F)F)c2)c1-c1ccccc1 [compound 17]
[1]
  MIC PA: >120
[2]
  MIC EC: 30
[3]
  MIC CA: 15
[4]
  MIC SA: 15

## NCCNCCNc1nc(-c2ccccc2)nc(-c2cccc(C(F)(F)F)c2)c1-c1ccccc1 [compound 18]
[1]
  MIC PA: 120
[2]
  MIC EC: 30
[3]
  MIC CA: 60
[4]
  MIC SA: 30

## NCCN1CCN(c2nc(-c3ccccc3)nc(-c3cccc(C(F)(F)F)c3)c2-c2ccccc2)CC1 [compound 19]
[1]
  MIC PA: >120
[2]
  MIC EC: 15
[3]
  MIC CA: 8
[4]
  MIC SA: 7.5

## NCCCCCCCCNc1nc(-c2ccccc2)nc(-c2cccc(C(F)(F)F)c2)c1-c1ccccc1 [compound 20]
[1]
  MIC PA: >120
[2]
  MIC EC: 30
[3]
  MIC CA: 15
[4]
  MIC SA: 15

## CN(CCCN)CCCNc1nc(-c2ccccc2)nc(-c2cccc(C(F)(F)F)c2)c1-c1ccccc1 [compound 21]
[1]
  MIC PA: 7.5
[2]
  MIC EC: <3.75
[3]
  MIC CA: <3.75
[4]
  MIC SA: 7.5

## NCCOCCOCCNc1nc(-c2ccccc2)nc(-c2cccc(C(F)(F)F)c2)c1-c1ccccc1 [compound 22]
[1]
  MIC PA: >120
[2]
  MIC EC: 15
[3]
  MIC CA: 7.5
[4]
  MIC SA: 15

## NCCCN1CCN(CCCNc2nc(-c3ccccc3)nc(-c3cccc(C(F)(F)F)c3)c2-c2ccccc2)CC1 [compound 23]
[1]
  MIC PA: 30
[2]
  MIC EC: 7.5
[3]
  MIC CA: 7.5
[4]
  MIC SA: 15

## COc1cccc(-c2nc(-c3ccccc3)nc(NCCCN(C)CCCN)c2-c2ccccc2)c1 [compound 24]
[1]
  MIC PA: 30
[2]
  MIC EC: 15
[3]
  MIC CA: 30
[4]
  MIC SA: 30

## COc1cccc(-c2nc(-c3ccccc3)nc(NCCCN3CCN(CCCN)CC3)c2-c2ccccc2)c1 [compound 25]
[1]
  MIC PA: >120
[2]
  MIC EC: 60
[3]
  MIC CA: 120
[4]
  MIC SA: >120

## CNCCN(C)c1nc(-c2ccccc2)nc(-c2ccccc2OC)c1-c1ccccc1 [compound 26]
[1]
  MIC PA: >120
[2]
  MIC EC: 60
[3]
  MIC CA: >120
[4]
  MIC SA: 60

## COc1ccccc1-c1nc(-c2ccccc2)nc(N2CCN(CCN)CC2)c1-c1ccccc1 [compound 27]
[1]
  MIC PA: >120
[2]
  MIC EC: 30
[3]
  MIC CA: 60
[4]
  MIC SA: 30

## COc1ccccc1-c1nc(-c2ccccc2)nc(N2CCC(CCCC3CCNCC3)CC2)c1-c1ccccc1 [compound 28]
[1]
  MIC PA: >120
[2]
  MIC EC: >120
[3]
  MIC CA: >120
[4]
  MIC SA: <3.75

## NCCCCCCCCCCCCNc1cc(-c2cccc3ccccc23)ncn1 [compound 29]
[1]
  MIC PA: >120
[2]
  MIC EC: 30
[3]
  MIC CA: 30
[4]
  MIC SA: 15

## FC(F)(F)c1cccc(-c2cc(N3CCC(CCCC4CCNCC4)CC3)ncn2)c1 [compound 30]
[1]
  MIC PA: >120
[2]
  MIC EC: 30
[3]
  MIC CA: 15
[4]
  MIC SA: 60

## CCCNc1cc(C)nc(-c2cccnc2)n1 [compound 31]
[1]
  MIC PA: >120
[2]
  MIC EC: >120
[3]
  MIC CA: 120
[4]
  MIC SA: 60

## CCCCNc1cc(C)nc(-c2cccnc2)n1 [compound 32]
[1]
  MIC PA: >120
[2]
  MIC EC: 120
[3]
  MIC CA: 60
[4]
  MIC SA: 60

## CCCCCCNc1cc(C)nc(-c2cccnc2)n1 [compound 33]
[1]
  MIC PA: >120
[2]
  MIC EC: >120
[3]
  MIC CA: 60
[4]
  MIC SA: 30

## CCCCCCCCNc1cc(C)nc(-c2cccnc2)n1 [compound 34]
[1]
  MIC PA: >120
[2]
  MIC EC: 120
[3]
  MIC CA: 30
[4]
  MIC SA: 7.5

## CCCCCCCCCCCNc1cc(C)nc(-c2cccnc2)n1 [compound 35]
[1]
  MIC PA: 120
[2]
  MIC EC: 30
[3]
  MIC CA: 30
[4]
  MIC SA: 15

## CCCCCCCCCCCCNc1cc(C)nc(-c2cccnc2)n1 [compound 36]
[1]
  MIC PA: 60
[2]
  MIC EC: 15
[3]
  MIC CA: 7.5
[4]
  MIC SA: 7.5

## CCCCCCCCCCCCCNc1cc(C)nc(-c2cccnc2)n1 [compound 37]
[1]
  MIC PA: >120
[2]
  MIC EC: 15
[3]
  MIC CA: 7.5
[4]
  MIC SA: 7.5
